Measurements taken from ChEMBL document CHEMBL1201862, “PubChem BioAssay data set” (2004).
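Five compound concentrations were applied to cells in 96-well plates for 48 hours; endpoints were derived by simple linear interpolation of the resulting dose-response curve. Here, GI50 denotes the concentration required for 50% inhibition of growth.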 The source made the active and inactive calls. No stated cut-off is given here; in the data, active = GI50 up to about 1.1 µM and inactive = higher.

Tests used:
Test in all cases: inhibition of tumour cell growth, NCI panel, 48 h
OVCAR-5 = tested on: OVCAR-5
IGROV-1 = tested on: IGROV-1
ACHN = tested on: ACHN
COLO 205 = tested on: COLO 205
NCI-H23 = tested on: NCI-H23
EKVX = tested on: EKVX
SK-OV-3 = tested on: SK-OV-3
A549 = tested on: A549
NCI-H226 = tested on: NCI-H226
SF-268 = tested on: SF-268
CCRF-CEM = tested on: CCRF-CEM
OVCAR-8 = tested on: OVCAR-8
Malme-3M = tested on: Malme-3M
OVCAR-4 = tested on: OVCAR-4
UACC-62 = tested on: UACC-62
UACC-257 = tested on: UACC-257
KM12 = tested on: KM12

Measured: GI50

CCC(=O)O[C@@H]1C2C(OC(C)=O)C34COC(C)([C@@H]3C3C(C[C@]3(C)OC(C)=O)[C@@H](OC(=O)c3ccccc3)C4=O)[C@H](OC(C)=O)[C@@]2(OC(C)=O)C[C@@H]1C (stereo not given in full)
inactive: OVCAR-5 94.4 µM | IGROV-1 13.7 µM | ACHN 36.1 µM | COLO 205 43.5 µM | NCI-H23 14.9 µM | EKVX 87.1 µM | SK-OV-3 15.7 µM | A549 > 100 µM | NCI-H226 20 µM | SF-268 44.1 µM | CCRF-CEM 17.5 µM | OVCAR-8 95.5 µM | Malme-3M 36.6 µM | OVCAR-4 21.1 µM | UACC-62 75.9 µM | UACC-257 87.9 µM | KM12 > 100 µM

C[C@@H]1CC2(C[C@@H](C)C3[C@@H](CC4(C)CCCC5C6=CC(O)(CC[C@]34C)OC6=CC(=O)OC5(C)C)O2)OC1=O (stereo not given in full)
inactive: OVCAR-5 > 100 µM | IGROV-1 > 100 µM | ACHN > 100 µM | COLO 205 > 100 µM | NCI-H23 > 100 µM | SK-OV-3 > 100 µM | A549 > 100 µM | NCI-H226 > 100 µM | Malme-3M > 100 µM | OVCAR-4 > 100 µM | UACC-62 > 100 µM | KM12 > 100 µM

CN1C(=O)CN2C(Cl)(Cl)C2(c2ccccc2F)c2cc([N+](=O)[O-])ccc21 (stereo not given)
inactive: OVCAR-5 > 100 µM | IGROV-1 63.8 µM | ACHN 41.5 µM | COLO 205 52.1 µM | NCI-H23 76 µM | EKVX 30.4 µM | SK-OV-3 > 10 µM | NCI-H226 16.2 µM | SF-268 51.1 µM | CCRF-CEM 29 µM | OVCAR-8 > 100 µM | Malme-3M 18.4 µM | OVCAR-4 > 100 µM | UACC-62 28.6 µM | UACC-257 64.4 µM | KM12 38.7 µM

Cc1ccc(C2C(Cl)C(=O)N2n2cnc3ccccc3c2=O)cc1 (stereo not given)
inactive: OVCAR-5 > 100 µM | IGROV-1 > 100 µM | ACHN > 100 µM | COLO 205 > 100 µM | NCI-H23 > 100 µM | EKVX 26.5 µM | SK-OV-3 67.3 µM | A549 > 100 µM | NCI-H226 26 µM | SF-268 > 100 µM | CCRF-CEM > 100 µM | OVCAR-8 > 100 µM | Malme-3M > 100 µM | OVCAR-4 65.9 µM | UACC-62 99.8 µM | UACC-257 42 µM | KM12 > 100 µM

COc1ccc(OC)c2c1CC(C(=O)O)(C(=O)O)CC2=O
inactive: OVCAR-5 > 100 µM | IGROV-1 > 100 µM | ACHN > 100 µM | NCI-H23 > 100 µM | EKVX > 100 µM | SK-OV-3 > 100 µM | A549 > 100 µM | NCI-H226 > 100 µM | SF-268 > 100 µM | Malme-3M > 100 µM | OVCAR-4 > 100 µM | UACC-62 > 100 µM | KM12 > 100 µM
